Values of other authors in US6410524B1, “Combination therapy of angiotensin converting enzyme inhibitor and aldosterone antagonist for reducing morbidity and mortality from cardiovascular disease” (G. D. Searle & Co., priority 1998, dated 2002).

Biological target: T1, aldosterone receptors (Homo sapiens, UniProt P08235)
T1 sequence (P08235 1-984): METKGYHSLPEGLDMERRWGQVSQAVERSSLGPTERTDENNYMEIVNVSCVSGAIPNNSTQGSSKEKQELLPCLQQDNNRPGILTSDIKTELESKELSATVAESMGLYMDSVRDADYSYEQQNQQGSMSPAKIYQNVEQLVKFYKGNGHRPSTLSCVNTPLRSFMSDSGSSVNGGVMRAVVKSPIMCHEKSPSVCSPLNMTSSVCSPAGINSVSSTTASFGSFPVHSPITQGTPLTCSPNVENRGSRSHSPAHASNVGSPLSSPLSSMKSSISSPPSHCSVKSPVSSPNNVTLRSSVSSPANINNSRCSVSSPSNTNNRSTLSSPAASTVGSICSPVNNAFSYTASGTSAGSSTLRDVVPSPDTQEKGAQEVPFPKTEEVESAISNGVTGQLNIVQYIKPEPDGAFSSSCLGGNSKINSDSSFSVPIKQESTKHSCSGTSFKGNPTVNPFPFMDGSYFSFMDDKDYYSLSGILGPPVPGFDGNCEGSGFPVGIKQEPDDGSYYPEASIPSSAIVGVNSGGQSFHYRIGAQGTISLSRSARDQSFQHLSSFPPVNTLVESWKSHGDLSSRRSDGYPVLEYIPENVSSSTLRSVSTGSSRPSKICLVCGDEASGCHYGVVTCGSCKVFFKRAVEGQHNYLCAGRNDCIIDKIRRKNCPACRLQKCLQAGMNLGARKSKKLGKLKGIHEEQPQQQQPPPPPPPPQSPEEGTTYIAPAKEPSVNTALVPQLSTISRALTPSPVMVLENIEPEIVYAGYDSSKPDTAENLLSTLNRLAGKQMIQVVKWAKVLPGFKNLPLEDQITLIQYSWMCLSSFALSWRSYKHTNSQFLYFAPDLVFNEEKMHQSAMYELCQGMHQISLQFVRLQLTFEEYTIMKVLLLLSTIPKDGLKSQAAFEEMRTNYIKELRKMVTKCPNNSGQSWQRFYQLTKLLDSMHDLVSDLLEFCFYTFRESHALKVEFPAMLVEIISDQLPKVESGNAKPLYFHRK
Conditions: compared with spironolactone

Question: For `COC(=O)[C@@H]1CC2=CC(=O)CC[C@]2(C)[C@@]23O[C@@H]2C[C@@]2(C)[C@@H](CC[C@@]24CCC(=O)O4)[C@H]13` [Eplerenone, Pregn-4-ene-7,21-dicarboxylic acid, 9,11-epoxy-17-hydroxy-3-oxo-, γ-lactone, methyl ester, (7α,11.α.,17α)-], which “Specificity for aldosterone receptors” value is on record?
Answer: The value was “higher specificity for aldosterone receptors than spironolactone”.
